Experimental data: US12054497B2, “Substituted heterocyclic fused cyclic compound, preparation method therefor and pharmaceutical use thereof” (GENFLEET THERAPEUTICS (SHANGHAI) INC., priority 2019, dated 2024)
Where two headings read alike, the source gives them in different places.

How the values were obtained:
[1] = tested on: A549 cells with Kras G12S mutation; assay: Cell proliferation inhibition experiment, 3D spheroid, CellTiter-Glo (Test Example 1); assay type: cell-based, human; conditions: 5 days
In short: (§1)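 NCI-H358 (800 cells/well) and A549 (400 cells/well) grown overnight as 3D spheroids in 2% FBS medium, then exposed to compound dilution series (3.16-fold, 0.1% DMSO) for 5 days. CellTiter-Glo luminescence read; inhibition relative to DMSO and blank, IC50 by four-parameter fit.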

[2] = tested on: NCI-H358 cells with Kras G12C mutation; assay: as above; assay type: cell-based, human; conditions: 5 days
In short: as §1

[3] = tested on: MIA PaCa-2 cells with Kras G12C mutation; assay: Cell proliferation inhibition experiment, 3D spheroid, CellTiter-Glo (Test Example 3); assay type: cell-based, human; conditions: 5 days, read-out: MIA-PaCa2 IC50
In short: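 MIA PaCa-2 spheroids (200 cells/well) were formed overnight, then exposed for 5 days to compounds in 3.16-fold dilutions at 0.1% DMSO. Viability was read by CellTiter-Glo luminescence, and inhibition was normalised to DMSO control and medium blank. IC50 came from a four-parameter fit.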

[4] = tested on: subcutaneous xenograft tumor model of MIA PaCa-2; assay: In vivo pharmacodynamic experiment, tumor growth inhibition (Test Example 5); set-up: species or system BALB/c nude mice; conditions: p.o., QD; for TGI: day 14
Experimental: Experimental objective: to evaluate the in vivo pharmaceutical effects of tested compounds on the subcutaneous xenograft tumor model of MIA PaCa-2.
Experimental operation: 6 to 8 weeks old female BALB/c nude mice each having the body weight of 18-20 g were chosen. MIA PaCa-2 cells were cultured in DMEM containing 10% FBS, 2.5% HS and 1% penicillin-streptomycin at 37° C. in an incubator with 5% CO2. Cells were collected. The MIA PaCa-2 cells were subcutaneously inoculated to the animals at their backs on the right, 2.0×10^6 cells (0.1 mL) for each animal. When tumor grew to 190-311 mm^3, mice with tumor having a suitable size were chosen and treated in groups, with administration dosages shown in Table 5 below. The animals were weighed on an electronic balance each day. The tumor volume was investigated by using a vernier caliper twice a week. The tumor volume was calculated by the following equation: V=0.5 a×b^2, a and b representing the long diameter and the short diameter of the tumor, respectively. The tumor volume was used to calculate a tumor growth inhibition rate (TGI), and the TGI shown in the form of a percentage was used to indicate the antineoplastic activity of a compound. The TGI was calculated by the following equation: TGI (%)=[1−avTi−0/avCi−0)]×100, with avTi−0 representing the average tumor volume of the group administrated with the compound on a specific day minus the average tumor volume of this group on the day of grouping, and avCi−0 representing the average tumor volume of the solvent control group on a specific day minus the average tumor volume of the solvent control group on the day of grouping. The tumor volume was shown in the form of an average value±standard error of mean (SEM).

[5] = Homo sapiens, MIA PaCa-2, 120 h

| Compound | IC50 [1] [nM] | IC50 [2] [nM] | IC50 [3, 5] [nM] | IC50 ([3]; Homo sapiens, 120 h) [nM] | Tumor Volume on Day 14 after Administration ([4]; 1 mg/kg) [mm^3] | TGI ([4]; 1 mg/kg) [%] | Tumor Volume on Day 14 after Administration ([4]; 3 mg/kg) [mm^3] | TGI ([4]; 3 mg/kg) [%] | Tumor Volume on Day 14 after Administration ([4]; 10 mg/kg) [mm^3] | TGI ([4]; 10 mg/kg) [%] | IC50 [3] [nM] | IC50 ([1]; Homo sapiens, A549, 120 h) [nM] | IC50 ([2]; Homo sapiens, NCI-H358, 120 h) [nM] |
| --- | --- | --- | --- | --- | --- | --- | --- | --- | --- | --- | --- | --- | --- |
| C=CC(=O)N1CCN2c3c(c(=O)n(-c4c(C)ccnc4C(C)C)c4nc(-c5c(O)cccc5F)c(F)cc34)N(C)C(=O)[C@H]2C1 (single isomer, unassigned) [Compound Z9-2] | > 10000 | 15 | 17 | – | – | – | – | – | – | – | – | – | – |
| C=CC(=O)N1C[C@@H]2C(=O)N(C)c3c(c4cc(F)c(-c5c(O)cccc5F)nc4n(-c4c(C)ccnc4C(C)C)c3=O)N2C[C@H]1C (single isomer, unassigned) [Compound Z10-2] | 24600 | 4 | 8 | – | – | – | – | – | – | – | – | – | – |
| C=CC(=O)N1CCN2c3c(c(=O)n(-c4c(C)ccnc4C(C)C)c4nc(-c5c(O)cccc5F)c(Cl)cc34)N(C)C(=O)[C@H]2C1 (single isomer, unassigned) [Compound Z25-2] | > 30000 | 3 | – | 5 | 180.14 | 116.2 | 62.35 | 143.7 | 18.94 | 154.4 | – | – | – |
| [2H]C([2H])([2H])N1C(=O)[C@H]2CN(C(=O)C=C)CCN2c2c1c(=O)n(-c1c(C)ccnc1C(C)C)c1nc(-c3c(O)cccc3F)c(Cl)cc21 (single isomer, unassigned) [Compound Z26-2] | > 30000 | 3 | – | – | 157.06 | 121.1 | 67.66 | 143.8 | 30.49 | 151.1 | 5 | – | – |
| C=CC(=O)N1C[C@@H]2C(=O)N(C)c3c(c4cc(Cl)c(-c5c(O)cccc5F)nc4n(-c4c(C)ccnc4C(C)C)c3=O)N2C[C@H]1C (single isomer, unassigned) [Compound Z27-2] | 19000 | 1 | 1 | – | 140.10 | 126.3 | 54.81 | 145.1 | 15.16 | 155.8 | – | – | – |
| C=CC(=O)N1CCN2c3c(c(=O)n(-c4c(C(C)C)ncnc4C(C)C)c4c(F)c(-c5c(O)cccc5F)c(Cl)cc34)NC(=O)[C@H]2C1 (single isomer, unassigned) [Compound Z37-1] | > 30000 | 0.7 | 2 | – | 286.12 | 89.4 | 238.82 | 102.8 | 210.59 | 108.4 | – | – | – |
| C=CC(=O)N1CCN2c3c(c(=O)n(-c4c(C)ccnc4C(C)C)c4nc(-c5c(O)cccc5F)c(F)cc34)OC[C@H]2C1 [Compound Z1, (4aR)-3-acryloyl-11-fluoro-10-(2-fluoro-6-hydroxyphenyl)-8-(2-isopropyl-4-methylpyridin-3-yl)-1,2,3,4,4a,5-hexahydropyrazino[1′,2′:4,5][1,4]oxazino[2,3-c][1,8]naphthyridin-7(8H)-one] | – | – | 90 | – | – | – | – | – | – | – | – | > 10000 | 31 |
| C=CC(=O)N1CCN2c3c(c(=O)n(-c4c(C(C)C)ncnc4C(C)C)c4nc(-c5c(O)cccc5F)c(Cl)cc34)N(C)C(=O)[C@H]2C1 [Compound Z48] | – | – | 6 | – | 459.33 | 51.2 | 148.62 | 124.7 | 90.39 | 138.5 | – | > 10000 | 3 |
